Values belong to the molecule of their own block, whether it stands above or below them.
Tests used:
[1] = test system: medullary thyroid carcinoma primary cultures; assay: Cell viability of MTC primary cultures (MTT); format: cell-based, human; details: 10^−8 M, forty-eight hours; for cell viability, change vs. control (signed, negative = reduced): group B (lanreotide non-responsive) mean
Method: Primary cultured cells from 18 selected MTC samples were incubated in ninety six well plates for forty eight hours with each SSTR agonist at 10^−8 M. Control cells were treated with vehicle solution. Cell viability was measured by a colorimetric method among eight replicates from treated and untreated (control) primary cultured cells. […] Data are expressed as the mean±SE percent cell viability reduction vs. untreated control cells. *P<0.05, and **P<0.01 vs. control.
(§1) Tissue samples were surgically removed in accordance with the guidelines of the local comnmittees on human research. Thyroid tissue samples were obtained under sterile conditions and immediately minced in RPMI 1640 tissue culture medium. Tissues were incubated with 0.25% trypsin overnight at 4° C. and then dissociated using 0.35% collagenase (Sigma, Milano, ITALY) and 1% trypsin at 37° C. for sixty minutes. Cell suspensions were filtered through double layers of gaus(e and washed twice with serum-free F-12 Ham's Nutrient Modified Medium (F-12; Euroclone Ltd, Wetherby, UNITED KINGDOM). Tumor cells were re-suspended in F-12 with 10% fetal bovine serum and antibiotics, seeded in ninety-six well culture plates (˜2×10^4 cells/well) and incubated at 37° C. in a humidified atmosphere of 5% CO2 and 95% air according to known procedures (Zatelli, M. C. et al., Endocrinology, 2005, 146:2692-8). Approximately twenty-four hours later, the prepared cells were treated with the selected somatostatin agonist and were monitored for hormone secretion and overall viability. Informed consent of the patients was obtained for disclosing clinical investigation and performing the in vitro study.
The effects of the tested somatostatin analogs on medullary thyroid carcinoma primary culture cell viability were assessed with a Cell Proliferation Kit I MTT® (Roche Diagnostics GmbH, Mannheim, GERMANY) which employs a colorimetric method for determining the number of viable cells in proliferation assays. Primary cultured cells were plated in ninety-six multiwell plates (2×10^4 cells/well) and incubated for forty-eight hours in a medium supplemented with 10% fetal bovine serum in the presence or absence of each somatostatin analog at 10^−8M. Treatments were renewed after the first twenty-four hours of incubation.
In order to investigate the effects of somatostatin analogs on medullary thyroid carcinoma cell viability, an MTT assay was performed in primary cultures derived from the eighteen selected medullary thyroid carcinoma samples, treated with or without each somatostatin analog at […] for forty-eight hours. Percent cell viability reduction compared to a control in each primary culture under treatment with each somatostatin analog is reported in Table 6.

SSTR1 = SSTR1 (Homo sapiens, UniProt P30872); assay: SSTR receptor binding affinity (Ki), SSTR1; details: read-out: SSTR Specificity Ki SSTR1
Chain of SSTR1 (P30872 whole entry): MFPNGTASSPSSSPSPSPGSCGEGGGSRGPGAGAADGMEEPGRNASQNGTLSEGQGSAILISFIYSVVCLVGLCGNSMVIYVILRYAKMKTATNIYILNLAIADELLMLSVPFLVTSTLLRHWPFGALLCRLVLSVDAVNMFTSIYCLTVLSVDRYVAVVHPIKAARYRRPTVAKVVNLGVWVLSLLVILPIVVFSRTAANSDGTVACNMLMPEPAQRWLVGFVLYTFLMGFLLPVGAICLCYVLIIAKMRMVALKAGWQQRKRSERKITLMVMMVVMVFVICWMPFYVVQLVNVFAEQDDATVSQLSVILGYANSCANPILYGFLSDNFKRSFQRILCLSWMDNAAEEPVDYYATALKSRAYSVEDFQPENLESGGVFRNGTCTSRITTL

[2] = test system: medullary thyroid carcinoma primary cultures; assay: Calcitonin secretion by MTC primary cultures (IRMA); format: cell-based, human; details: 10^−8 M, six hours
Method: Primary cultured cells from 18 selected MTC samples were incubated in ninety six well plates for six hours with each SSTR agonist at 10^−8 M. Control cells were treated with vehicle solution. Calcitonin levels in the conditioned medium were measured by immunoradiometric assay (IRMA) among eight replicates in the conditioned medium from treated and untreated (control) primary cultured cells. […] Data are expressed as the mean±SE percent hormone secretion inhibition vs. untreated control cells. *P<0.05 and **P<0.01 vs. control.
as §1
Calcitonin levels were measured in a conditioned medium from treated and untreated primary cultured cells with the calcitonin-U.S.-IRMA® kit (Biosource Europe, Nivelles, BELGIUM) after a six hour treatment with […] of the selected somatostatin analogs. The intra- and inter-assay variation coefficients were 1.9-2.7% and 1.9-3.3%, respectively. The detection limit was 0.8 pg/ml. Hormone assays were performed in duplicate of conditioned medium from treated cells. Results were obtained by determining the mean value among eight replicates.
In order to investigate the effects of somatostatin analogs on hormone secretion, calcitonin and CgA levels were measured in conditioned media collected from primary cultures derived from the selected eighteen medullary thyroid carcinoma treated with or without each somatostatin analog at 10^−8M for six hours.
According to this criterion, […] as “responders” (group A: primary cultures #3, #5, #6, #7, #11, #12, #13, #14, #15, #16) and nine as “non responders” (group B: primary cultures #1, #2, #4, #8, #9, #10, #17, #18).

SSTR3 = SSTR3 (Homo sapiens, UniProt P32745); assay: SSTR receptor binding affinity (Ki), SSTR3; details: read-out: SSTR Specificity Ki SSTR3
Chain of SSTR3 (P32745 whole entry): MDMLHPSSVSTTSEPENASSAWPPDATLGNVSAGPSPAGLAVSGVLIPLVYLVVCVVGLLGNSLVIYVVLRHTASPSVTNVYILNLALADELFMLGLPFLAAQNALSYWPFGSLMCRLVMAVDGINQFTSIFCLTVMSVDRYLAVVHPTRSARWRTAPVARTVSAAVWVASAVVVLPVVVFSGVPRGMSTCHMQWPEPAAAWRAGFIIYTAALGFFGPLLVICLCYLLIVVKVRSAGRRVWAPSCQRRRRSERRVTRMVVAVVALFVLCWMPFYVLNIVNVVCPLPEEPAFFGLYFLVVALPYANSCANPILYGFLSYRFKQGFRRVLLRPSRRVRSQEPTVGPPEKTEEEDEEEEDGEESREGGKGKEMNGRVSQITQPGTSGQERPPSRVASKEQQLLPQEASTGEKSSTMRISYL

MTC = details: cited from earlier work; for suppressing calcitonin secretion: MTC, commercially available somatostatin analogs; for reducing tumour size and/or increasing patient survival rate: treatment of MTC patients
SSTR2 = SSTR2 (Homo sapiens, UniProt P30874); assay: SSTR receptor binding affinity (Ki), SSTR2; details: read-out: SSTR Specificity Ki SSTR2
Chain of SSTR2 (P30874 whole entry): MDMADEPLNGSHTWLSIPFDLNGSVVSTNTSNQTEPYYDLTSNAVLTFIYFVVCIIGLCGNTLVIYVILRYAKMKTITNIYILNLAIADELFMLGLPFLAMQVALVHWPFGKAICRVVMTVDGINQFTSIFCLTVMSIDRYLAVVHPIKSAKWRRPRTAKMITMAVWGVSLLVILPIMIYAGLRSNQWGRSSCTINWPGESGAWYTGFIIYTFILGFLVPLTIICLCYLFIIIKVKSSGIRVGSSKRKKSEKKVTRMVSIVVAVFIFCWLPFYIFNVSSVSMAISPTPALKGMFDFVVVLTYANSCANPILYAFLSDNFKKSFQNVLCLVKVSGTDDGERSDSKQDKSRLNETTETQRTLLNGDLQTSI

SSTR4 = SSTR4 (Homo sapiens, UniProt P31391); assay: SSTR receptor binding affinity (Ki), SSTR4; details: read-out: SSTR Specificity Ki SSTR4
Chain of SSTR4 (P31391 whole entry): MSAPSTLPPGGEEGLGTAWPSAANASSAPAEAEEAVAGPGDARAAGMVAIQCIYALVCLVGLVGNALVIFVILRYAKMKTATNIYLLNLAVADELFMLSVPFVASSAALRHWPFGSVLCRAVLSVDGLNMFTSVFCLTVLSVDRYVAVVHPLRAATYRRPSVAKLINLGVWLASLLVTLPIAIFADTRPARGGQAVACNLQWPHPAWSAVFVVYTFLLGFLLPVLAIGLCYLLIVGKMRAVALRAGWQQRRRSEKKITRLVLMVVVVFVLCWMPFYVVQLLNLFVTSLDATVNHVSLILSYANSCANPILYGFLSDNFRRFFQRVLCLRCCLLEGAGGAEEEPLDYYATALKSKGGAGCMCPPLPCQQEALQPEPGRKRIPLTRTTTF

[3] = MTC primary culture #1 (non responder)
[4] = MTC primary culture #2 (non responder)
[5] = MTC primary culture #3 (responder)
[6] = MTC primary culture #4 (non responder)
[7] = MTC primary culture #5 (responder)
[8] = MTC primary culture #6 (responder)
[9] = MTC primary culture #7 (responder)
[10] = MTC primary culture #8 (non responder)
[11] = MTC primary culture #9 (non responder)
[12] = MTC primary culture #10 (non responder)
[13] = MTC primary culture #11 (responder)
[14] = MTC primary culture #12 (responder)
[15] = MTC primary culture #13 (responder)
[16] = MTC primary culture #14 (responder)
[17] = MTC primary culture #15 (responder)
[18] = MTC primary culture #16 (responder)
[19] = MTC primary culture #17 (non responder)
[20] = MTC primary culture #18 (non responder)
[21] = group A (lanreotide responsive) mean

SMILES: CC(C)[C@@H]1NC(=O)[C@H](CCCCN)NC(=O)[C@@H](Cc2c[nH]c3ccccc23)NC(=O)[C@H](Cc2ccc(O)cc2)NC(=O)[C@@H](NC(=O)[C@H](N)Cc2ccc3ccccc3c2)CSSC[C@@H](C(=O)N[C@H](C(N)=O)[C@@H](C)O)NC1=O [lanreotide, D-β-Nal-c[Cys-Tyr-D-Trp-Lys-Val-Cys]-Thr-NH2, reference compound]
% cell viability reduction vs. control [1, 3]: −6.1%
% cell viability reduction vs. control [1, 4]: −57.0%
% cell viability reduction vs. control [1, 5]: 1.5%
% cell viability reduction vs. control [1, 6]: −25.8%
% cell viability reduction vs. control [1, 7]: 13.4%
% cell viability reduction vs. control [1, 8]: 9.7%
% cell viability reduction vs. control [1, 9]: 54.4%
% cell viability reduction vs. control [1, 10]: −7.9%
% cell viability reduction vs. control [1, 11]: −8.6%
% cell viability reduction vs. control [1, 12]: 7.0%
% cell viability reduction vs. control [1, 13]: −11.2%
% cell viability reduction vs. control [1, 14]: 3.5%
% cell viability reduction vs. control [1, 15]: 23.1%
% cell viability reduction vs. control [1, 16]: 1.8%
% cell viability reduction vs. control [1, 17]: −8.3%
% cell viability reduction vs. control [1, 18]: −15.8%
% cell viability reduction vs. control [1, 19]: −9.7%
% cell viability reduction vs. control [1, 20]: −15.8%
cell viability, change vs. control (signed, negative = reduced) [1]: −14%
Ki (SSTR1): 2.13 µM
% CT secretion inhibition vs. control [2, 3]: −5.2%
% CT secretion inhibition vs. control [2, 4]: 21.7%
% CT secretion inhibition vs. control [2, 5]: −22.6%
% CT secretion inhibition vs. control [2, 6]: 34.7%
% CT secretion inhibition vs. control [2, 7]: −19.0%
% CT secretion inhibition vs. control [2, 8]: −18.0%
% CT secretion inhibition vs. control [2, 9]: −44.6%
% CT secretion inhibition vs. control [2, 10]: 14.7%
% CT secretion inhibition vs. control [2, 11]: 9.8%
% CT secretion inhibition vs. control [2, 12]: 22.9%
% CT secretion inhibition vs. control [2, 13]: −25.1%
% CT secretion inhibition vs. control [2, 14]: −20.6%
% CT secretion inhibition vs. control [2, 15]: −42.5%
% CT secretion inhibition vs. control [2, 16]: −19.8%
% CT secretion inhibition vs. control [2, 17]: −20.9%
% CT secretion inhibition vs. control [2, 18]: −34.3%
% CT secretion inhibition vs. control [2, 19]: 8.5%
% CT secretion inhibition vs. control [2, 20]: −10.8%
calcitonin secretion reduced / inhibited by ([2]; group A (lanreotide responders) mean): 27%
calcitonin secretion, change vs. control (signed, negative = reduced) [2, 21]: −27%
Ki (SSTR3): 0.098 µM
suppressing calcitonin secretion (MTC): lack of efficacy
reducing tumour size and/or increasing patient survival rate (MTC): little effect

Ki (SSTR1): 1.02 µM
Ki (SSTR2): 0.00029 µM
Ki (SSTR4): > 1 µM
Ki (SSTR3): 0.133 µM
SMILES: CC(C)[C@@H]1NC(=O)[C@H](CCCCN)NC(=O)[C@@H](Cc2c[nH]c3ccccc23)NC(=O)[C@H](Cc2ccc(O)c(I)c2)NC(=O)[C@@H](NC(=O)[C@H](N)Cc2ccccc2)CSSC[C@@H](C(=O)N[C@H](C(N)=O)[C@@H](C)O)NC1=O [Cmpd #4, D-Phe-[Cys-Tyr(I)-D-Trp-Lys-Val-Cys]-Thr-NH2]
% cell viability reduction vs. control [1, 3]: −14.7%
% cell viability reduction vs. control [1, 4]: −38.3%
% cell viability reduction vs. control [1, 5]: 13.3%
% cell viability reduction vs. control [1, 6]: −11.3%
% cell viability reduction vs. control [1, 7]: 24.7%
% cell viability reduction vs. control [1, 8]: −10.8%
% cell viability reduction vs. control [1, 9]: 5.7%
% cell viability reduction vs. control [1, 10]: −20.6%
% cell viability reduction vs. control [1, 11]: −32.1%
% cell viability reduction vs. control [1, 12]: 6.5%
% cell viability reduction vs. control [1, 13]: 1.4%
% cell viability reduction vs. control [1, 14]: 7.4%
% cell viability reduction vs. control [1, 15]: 9.3%
% cell viability reduction vs. control [1, 16]: 1.3%
% cell viability reduction vs. control [1, 17]: 12.6%
% cell viability reduction vs. control [1, 18]: 15.0%
% cell viability reduction vs. control [1, 19]: −2.6%
% cell viability reduction vs. control [1, 20]: −7.7%
cell viability, change vs. control (signed, negative = reduced) [1]: −13%
% CT secretion inhibition vs. control [2, 3]: −10.5%
% CT secretion inhibition vs. control [2, 4]: 5.2%
% CT secretion inhibition vs. control [2, 5]: −33.9%
% CT secretion inhibition vs. control [2, 6]: −10.3%
% CT secretion inhibition vs. control [2, 7]: −15.7%
% CT secretion inhibition vs. control [2, 8]: −12.6%
% CT secretion inhibition vs. control [2, 9]: −42.6%
% CT secretion inhibition vs. control [2, 10]: 3.6%
% CT secretion inhibition vs. control [2, 11]: −5.2%
% CT secretion inhibition vs. control [2, 12]: 12.8%
% CT secretion inhibition vs. control [2, 13]: −15.7%
% CT secretion inhibition vs. control [2, 14]: −18.5%
% CT secretion inhibition vs. control [2, 15]: −42.8%
% CT secretion inhibition vs. control [2, 16]: 8.4%
% CT secretion inhibition vs. control [2, 17]: −30.6%
% CT secretion inhibition vs. control [2, 18]: −16.2%
% CT secretion inhibition vs. control [2, 19]: 12.7%
% CT secretion inhibition vs. control [2, 20]: 5.3%
calcitonin secretion, change vs. control (signed, negative = reduced) [2, 21]: −25%
calcitonin secretion, change vs. control (signed, negative = reduced) ([2]; group B (lanreotide non-responsive) mean): not reduced

SMILES: C[C@@H](O)[C@@H]1NC(=O)[C@H](CCCCN)NC(=O)[C@@H](Cc2c[nH]c3ccccc23)NC(=O)[C@H](Cc2ccccc2)NC(=O)[C@@H](NC(=O)[C@H](N)Cc2ccccc2)CSSC[C@@H](C(=O)N[C@H](CO)[C@@H](C)O)NC1=O [octreotide]
suppressing calcitonin secretion (MTC): lack of efficacy
reducing tumour size and/or increasing patient survival rate (MTC): little effect

Ki (SSTR1): 4.52 µM
Ki (SSTR4): 6.36 µM
SMILES: CC[C@@H]1NC(=O)[C@H](CCCCN)NC(=O)[C@@H](Cc2c[nH]c3ccccc23)NC(=O)[C@H](Cc2ccc(O)cc2)NC(=O)[C@@H](NC(=O)[C@@H](Cc2ccccc2)NC(=O)CN2CCN(CCO)CC2)CSSC[C@@H](C(=O)N[C@H](C(N)=O)[C@@H](C)O)NC1=O [4-(2-Hydroxyethyl)-1-piperazinylacetyl-D-Phe-c[Cys-Tyr-D-Trp-Lys-Abu-Cys]-Thr-NH2]
